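Step 1: Grow cells in 96-well plates. Step 2: Expose to compound for 48 hours at 5 concentrations. Step 3: Interpolate endpoints linearly; if unreached, use highest concentration. TGI is the concentration that stops growth completely.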
Key:
Experiment in all cases: inhibition of tumour cell growth, NCI panel, 48 h
[1] = tested on: A549 NSCLC
[2] = tested on: DU-145 prostate
[3] = tested on: HCC-2998 colon
[4] = tested on: HOP-92 NSCLC
[5] = tested on: HS 578T breast
[6] = tested on: IGROV1 ovarian
[7] = tested on: NCI/ADR-RES ovarian
[8] = tested on: PC-3 prostate
[9] = tested on: SN12C renal
[10] = tested on: U251 CNS
[11] = tested on: HL-60(TB) leukemia

Structure (SMILES)	TGI [1]	TGI [2]	TGI [3]	TGI [4]	TGI [5]	TGI [6]	TGI [7]	TGI [8]	TGI [9]	TGI [10]	TGI [11]
CC1=NN(c2nc(N)nc(CBr)n2)C(C)(C)C1	37.1 µM	12.1 µM	30.6 µM	1.08 µM	38.2 µM	3.29 µM	45.4 µM	18 µM	20.5 µM	16.9 µM	
CCCC(=O)NC(Nc1cc(C)ccn1)(C(=O)OCC)C(F)(F)F (configuration not stated)	> 100 µM	> 100 µM	> 100 µM	> 100 µM	> 100 µM	> 100 µM	> 100 µM	> 100 µM	> 100 µM	> 100 µM	> 100 µM
O=C(c1ccccc1)c1ccc(N2C(=O)/C(=C/Cc3ccco3)N=C2c2ccccc2)c(N2C(=O)/C(=C/Cc3ccco3)N=C2c2ccccc2)c1	> 100 µM	96.6 µM	> 100 µM	> 100 µM	64.9 µM	> 100 µM	> 100 µM	> 100 µM	> 100 µM	43.8 µM	45.7 µM
COc1ccc(OC)c(CSc2ccc(OC)c(OC)c2)c1	> 100 µM	> 100 µM	> 100 µM	98.3 µM	> 100 µM	> 100 µM	> 100 µM	> 100 µM	> 100 µM	> 100 µM	> 100 µM
CCN1CCCC(C#N)(c2ccccc2)CC1 (configuration not stated)	> 100 µM	> 100 µM	> 100 µM	> 100 µM	> 100 µM	> 100 µM	> 100 µM	> 100 µM		> 100 µM	> 100 µM
NC(CSCc1ccc(I)cc1)C(=O)O (configuration not stated)	> 100 µM	> 100 µM	> 100 µM	> 100 µM	> 100 µM	> 100 µM	> 100 µM	> 100 µM	> 100 µM	> 100 µM	> 100 µM
c1ccc2c(CN3CCN(Cc4c[nH]c5ccccc45)CC3)c[nH]c2c1		40.7 µM	3.29 µM	31.2 µM	36.2 µM	27.4 µM	58 µM	43.7 µM	41.9 µM	29.3 µM	39.3 µM
CCc1c(CN)c(CC)c(CNC2=NCCN2)c(CC)c1CNC1=NCCN1	> 100 µM	> 100 µM	> 100 µM	> 100 µM	> 100 µM	> 100 µM	> 100 µM	> 100 µM	> 100 µM	> 100 µM	
FC(F)(F)c1ccc(Cc2nc3cc4ccccc4cc3[nH]2)cc1	> 100 µM	> 100 µM	> 100 µM	47.8 µM	> 100 µM	> 100 µM	> 100 µM	> 100 µM	> 100 µM	> 100 µM	> 100 µM
Cc1ccc(S(=O)(=O)N2CCN(S(=O)(=O)c3ccc(C)cc3)CCN(S(=O)(=O)c3ccc(C)cc3)Cc3cc(C#N)c(C#N)cc3CN(S(=O)(=O)c3ccc(C)cc3)CC2)cc1	> 100 µM	> 100 µM	> 100 µM	89.3 µM	> 100 µM	> 100 µM	> 100 µM	> 100 µM	> 100 µM	> 100 µM	> 100 µM
Nc1ccc2nc3c(nc2c1)C(=O)c1ccccc1-3	> 100 µM	> 100 µM	> 100 µM	> 100 µM	> 100 µM	> 100 µM	> 100 µM	> 100 µM	> 100 µM	> 100 µM	> 100 µM
Cc1ccc(/C=N/n2c(Cc3ccccc3)n[nH]c2=O)cc1	> 100 µM	> 100 µM	> 100 µM	83.4 µM	> 100 µM	> 100 µM	> 100 µM	> 100 µM	> 100 µM		> 100 µM
Clc1c(Cl)c(Cl)c2c(nnn2C2CCCO2)c1Cl (configuration not stated)	65.1 µM	> 100 µM	> 100 µM		59 µM	> 100 µM	> 100 µM	> 100 µM	> 100 µM	> 100 µM	38.5 µM
Cn1c2ccccc2n2c3ncccc3c(=NCCCC(=O)O)c(C#N)c12	> 100 µM	> 100 µM	> 100 µM		> 100 µM	> 100 µM	> 100 µM	> 100 µM	> 100 µM	> 100 µM	> 100 µM
NC(=O)C(=O)c1ncn(Cc2ccccc2)c1N	> 100 µM	> 100 µM	> 100 µM		> 100 µM	> 100 µM	> 100 µM	> 100 µM	> 100 µM	> 100 µM	> 100 µM
